Test results published in publication PMC9679999, “A Useful Guide to Lectin Binding: Machine-Learning Directed Annotation of 57 Unique Lectin Specificities” (ACS Chemical Biology, 2022).

Columns and labels:
Type in all cases: binding
[1] = target: Marasmius oreades agglutinin (MOA) (Marasmius oreades, UniProt Q8X123); test: CFG glycan microarray v5, biotinylated lectin, Cy5-streptavidin
[2] = target: T1, Cholera Toxin B Subunit (CTB) (Vibrio cholerae, UniProt P01556)
T1 construct: gene ctxB

[3] = target: T2, Psophocarpus tetragonolobus lectin-I (PTL-I/PTA-I) (Psophocarpus tetragonolobus, UniProt O24313); test: CFG glycan microarray v5, biotinylated lectin, Cy5-streptavidin
T2 construct: gene WBAI
T2 sequence (O24313 1-242): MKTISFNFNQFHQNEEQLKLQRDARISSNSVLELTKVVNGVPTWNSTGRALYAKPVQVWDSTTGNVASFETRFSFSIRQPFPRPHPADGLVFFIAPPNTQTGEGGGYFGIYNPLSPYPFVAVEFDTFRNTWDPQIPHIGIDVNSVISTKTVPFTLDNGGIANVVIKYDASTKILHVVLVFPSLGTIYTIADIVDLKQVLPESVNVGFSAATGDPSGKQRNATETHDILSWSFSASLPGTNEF

[4] = target: T3, Hippeastrum hybrid Lectin (HHA, HHL) (Hippeastrum hybrid cultivar, UniProt Z9FHC8O5N0); test: as above
T3 construct: commercial lectin (EY and Vector), biotinylated
T3 sequence (Z9FHC8O5N0 1-108): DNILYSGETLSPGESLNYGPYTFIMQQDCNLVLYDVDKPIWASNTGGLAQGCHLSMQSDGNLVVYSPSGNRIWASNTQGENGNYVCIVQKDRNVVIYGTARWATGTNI

Chain of Marasmius oreades agglutinin (MOA) (Q8X123 entry or part of it): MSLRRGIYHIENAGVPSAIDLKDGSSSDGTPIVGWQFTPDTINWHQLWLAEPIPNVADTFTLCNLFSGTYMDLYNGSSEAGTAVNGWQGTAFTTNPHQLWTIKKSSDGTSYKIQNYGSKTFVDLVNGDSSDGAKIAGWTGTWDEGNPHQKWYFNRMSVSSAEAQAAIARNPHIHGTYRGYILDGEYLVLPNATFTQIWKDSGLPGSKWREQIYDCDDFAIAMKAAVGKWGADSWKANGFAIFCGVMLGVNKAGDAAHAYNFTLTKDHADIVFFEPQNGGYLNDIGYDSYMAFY
T1 sequence (P01556 22-124 limits assumed): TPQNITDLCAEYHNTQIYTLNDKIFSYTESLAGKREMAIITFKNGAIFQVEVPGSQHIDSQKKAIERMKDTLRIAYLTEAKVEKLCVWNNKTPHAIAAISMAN

C[C@@H]1O[C@@H](O[C@H]2C(O)O[C@H](CO)[C@H](O)[C@@H]2O[C@H]2O[C@H](CO)[C@H](O)[C@H](O)[C@H]2O)[C@@H](O)[C@H](O)[C@@H]1O (stereo partly shown) [B trisaccharide]
CFG glycan microarray v5, biotinylated lectin, Cy5-streptavidin [1]: This motif lies within the B trisaccharide, which is preferentially bound by this lectin

CC(=O)N[C@H]1[C@H](O[C@@H]2[C@H](O[C@]3(C(=O)O)C[C@H](O)[C@@H](NC(C)=O)[C@H]([C@H](O)[C@H](O)CO)O3)[C@@H](O)[C@H](O[C@H]3[C@H](O)[C@@H](O)C(O)O[C@@H]3CO)O[C@@H]2CO)O[C@H](CO)[C@H](O)[C@@H]1O[C@@H]1O[C@H](CO)[C@H](O)[C@H](O)[C@H]1O (stereo partly shown) [GM1]
CFG glycan microarray v5, biotinylated lectin, Cy5-streptavidin [2]: Our analysis found only two glycan binders, GM1 and fucosylated GM1

CC(=O)N[C@H]1[C@@H](O[C@H]2[C@@H](O)[C@@H](CO)OC(O)[C@@H]2O[C@@H]2O[C@@H](C)[C@@H](O)[C@@H](O)[C@@H]2O)O[C@H](CO)[C@H](O)[C@@H]1O (stereo partly shown) [blood group A trisaccharide]
CFG glycan microarray v5, biotinylated lectin, Cy5-streptavidin [3]: we found blood group A trisaccharides

OC[C@H]1O[C@H](OC[C@H]2OC(O)[C@@H](O)[C@@H](O[C@H]3O[C@H](CO)[C@@H](O)[C@H](O)[C@@H]3O)[C@@H]2O)[C@@H](O)[C@@H](O)[C@@H]1O (stereo partly shown) [mannose core trisaccharide]
CFG glycan microarray v5, biotinylated lectin, Cy5-streptavidin [4]: This lectin shows the highest affinity for the mannose core trisaccharide
